Tests used:
Test in all cases: relative viability (nuclei count vs DMSO), 5 days (fraction); higher = more cells survive
HARA = tested on: HARA
Method in brief: (§1)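 After 5 days of treatment, lung cancer cells in 1536-well plates were fixed and stained in a single step (final 0.05% Triton X-100, 1% formaldehyde, 1 ug/ml Hoechst) and their nuclei counted on 4× images. Treatment had been applied by pin tool the day after seeding as one drug alone or as a fixed anchor-drug dose with five library-drug doses (not always all listed) in √10 steps. Relative viability is the nuclei count of treated wells divided by that of vehicle wells, and values are medians of duplicate plates.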

NCI-H2126 = tested on: NCI-H2126
Method in brief: as §1

CAL-12T = tested on: CAL-12T
Method in brief: as §1

NCI-H1975 = tested on: NCI-H1975
Method in brief: as §1

NCI-H647 = tested on: NCI-H647
Method in brief: as §1

NCI-H460 = tested on: NCI-H460
Method in brief: as §1

NCI-H727 = tested on: NCI-H727
Method in brief: as §1

A-427 = tested on: A-427
Method in brief: as §1

NCI-H596 = tested on: NCI-H596
Method in brief: as §1

NCI-H1734 = tested on: NCI-H1734
Method in brief: as §1

NCI-H520 = tested on: NCI-H520
Method in brief: as §1

BEN = tested on: BEN
Method in brief: as §1

NCI-H1666 = tested on: NCI-H1666
Method in brief: as §1

NCI-H2085 = tested on: NCI-H2085
Method in brief: as §1

NCI-H838 = tested on: NCI-H838
Method in brief: as §1

RERF-LC-KJ = tested on: RERF-LC-KJ
Method in brief: as §1

LOU-NH91 = tested on: LOU-NH91
Method in brief: as §1

NCI-H1944 = tested on: NCI-H1944
Method in brief: as §1

NCI-H1651 = tested on: NCI-H1651
Method in brief: as §1

Work on `Cc1cn(-c2cc(NC(=O)c3ccc(C)c(Nc4nccc(-c5cccnc5)n4)c3)cc(C(F)(F)F)c2)cn1` [Nilotinib] + CC1(C)CCC(c2ccc(Cl)cc2)=C(CN2CCN(c3ccc(C(=O)NS(=O)(=O)c4ccc(N[C@H](CCN5CCOCC5)CSc5ccccc5)c(S(=O)(=O)C(F)(F)F)c4)cc3)CC2)C1 [Navitoclax] (partner 0.5 µM) yielded a relative viability (HARA; first compound 0.001 µM) of 1.07, a relative viability (HARA; first compound 0.003162 µM) of 1.26 and a relative viability (HARA; first compound 0.01 µM) of 1.24. For the same compound, the relative viability (HARA; first compound 0.03162 µM) was 1.06, the relative viability (HARA; first compound 0.1 µM) was 1.15 and the relative viability (NCI-H2126; first compound 0.001 µM) was 0.861. The relative viability (NCI-H2126; first compound 0.003162 µM) was 0.891, the relative viability (NCI-H2126; first compound 0.01 µM) was 0.89 and the relative viability (NCI-H2126; first compound 0.03162 µM) was 0.846. It also gave a relative viability (NCI-H2126; first compound 0.1 µM) of 0.82, a relative viability (CAL-12T; first compound 0.003162 µM) of 1.17 and a relative viability (CAL-12T; first compound 0.01 µM) of 1.17. The relative viability (CAL-12T; first compound 0.03162 µM) was 1.02, the relative viability (CAL-12T; first compound 0.1 µM) was 0.956 and the relative viability (NCI-H1975; first compound 0.001 µM) was 0.904. The relative viability (NCI-H1975; first compound 0.003162 µM) was 1.22, the relative viability (NCI-H1975; first compound 0.01 µM) was 1.34 and the relative viability (NCI-H1975; first compound 0.03162 µM) was 0.694. It also gave a relative viability (NCI-H1975; first compound 0.1 µM) of 0.976, a relative viability (NCI-H647; first compound 0.001 µM) of 0.952 and a relative viability (NCI-H647; first compound 0.003162 µM) of 1.42. The relative viability (NCI-H647; first compound 0.01 µM) was 1.26, the relative viability (NCI-H647; first compound 0.03162 µM) was 0.997 and the relative viability (NCI-H647; first compound 0.1 µM) was 0.974. It also gave a relative viability (NCI-H460; first compound 0.001 µM) of 1.02, a relative viability (NCI-H460; first compound 0.003162 µM) of 1.48 and a relative viability (NCI-H460; first compound 0.01 µM) of 1.76. The relative viability (NCI-H460; first compound 0.03162 µM) was 0.628, the relative viability (NCI-H460; first compound 0.1 µM) was 0.975 and the relative viability (NCI-H727; first compound 0.001 µM) was 0.478. The relative viability (NCI-H727; first compound 0.01 µM) was 0.386, the relative viability (NCI-H727; first compound 0.03162 µM) was 0.385 and the relative viability (NCI-H727; first compound 0.1 µM) was 0.253. It also gave a relative viability (A-427; first compound 0.001 µM) of 0.984, a relative viability (A-427; first compound 0.01 µM) of 0.998 and a relative viability (A-427; first compound 0.03162 µM) of 0.908. It also gave a relative viability (A-427; first compound 0.1 µM) of 0.923, a relative viability (NCI-H596; first compound 0.001 µM) of 0.924 and a relative viability (NCI-H596; first compound 0.003162 µM) of 1.12. It also gave a relative viability (NCI-H596; first compound 0.01 µM) of 1.13, a relative viability (NCI-H596; first compound 0.03162 µM) of 0.673 and a relative viability (NCI-H596; first compound 0.1 µM) of 0.922. The relative viability (NCI-H1734; first compound 0.001 µM) was 0.704, the relative viability (NCI-H1734; first compound 0.003162 µM) was 1.03 and the relative viability (NCI-H1734; first compound 0.01 µM) was 1.06. For the same compound, the relative viability (NCI-H1734; first compound 0.03162 µM) was 0.434, the relative viability (NCI-H1734; first compound 0.1 µM) was 0.543 and the relative viability (NCI-H520; first compound 0.001 µM) was 1.13. The relative viability (NCI-H520; first compound 0.01 µM) was 1.11, the relative viability (NCI-H520; first compound 0.03162 µM) was 0.96 and the relative viability (NCI-H520; first compound 0.1 µM) was 1.15. It also gave a relative viability (BEN; first compound 0.001 µM) of 0.0648, a relative viability (BEN; first compound 0.003162 µM) of 0.0542 and a relative viability (BEN; first compound 0.01 µM) of 0.0592. It also gave a relative viability (BEN; first compound 0.1 µM) of 0.0654, a relative viability (NCI-H1666; first compound 0.001 µM) of 0.994 and a relative viability (NCI-H1666; first compound 0.003162 µM) of 1.24. For the same compound, the relative viability (NCI-H1666; first compound 0.01 µM) was 0.98, the relative viability (NCI-H1666; first compound 0.03162 µM) was 0.895 and the relative viability (NCI-H1666; first compound 0.1 µM) was 0.759. For the same compound, the relative viability (NCI-H2085; first compound 0.001 µM) was 1.12, the relative viability (NCI-H2085; first compound 0.003162 µM) was 1.19 and the relative viability (NCI-H2085; first compound 0.01 µM) was 1.38. It also gave a relative viability (NCI-H2085; first compound 0.03162 µM) of 0.957, a relative viability (NCI-H2085; first compound 0.1 µM) of 1.03 and a relative viability (NCI-H838; first compound 0.001 µM) of 1.09. For the same compound, the relative viability (NCI-H838; first compound 0.003162 µM) was 1.42, the relative viability (NCI-H838; first compound 0.01 µM) was 1.54 and the relative viability (NCI-H838; first compound 0.03162 µM) was 1.05. It also gave a relative viability (NCI-H838; first compound 0.1 µM) of 1.15, a relative viability (RERF-LC-KJ; first compound 0.001 µM) of 1.07 and a relative viability (RERF-LC-KJ; first compound 0.003162 µM) of 0.949. It also gave a relative viability (RERF-LC-KJ; first compound 0.01 µM) of 1.24, a relative viability (RERF-LC-KJ; first compound 0.03162 µM) of 1.15 and a relative viability (RERF-LC-KJ; first compound 0.1 µM) of 1.08. The relative viability (LOU-NH91; first compound 0.001 µM) was 0.644, the relative viability (LOU-NH91; first compound 0.003162 µM) was 0.685 and the relative viability (LOU-NH91; first compound 0.01 µM) was 0.846. It also gave a relative viability (LOU-NH91; first compound 0.03162 µM) of 0.608, a relative viability (LOU-NH91; first compound 0.1 µM) of 0.658 and a relative viability (NCI-H1944; first compound 0.001 µM) of 1.03. The relative viability (NCI-H1944; first compound 0.003162 µM) was 1.13, the relative viability (NCI-H1944; first compound 0.01 µM) was 1.22 and the relative viability (NCI-H1944; first compound 0.03162 µM) was 1.12. The relative viability (NCI-H1944; first compound 0.1 µM) was 0.987, the relative viability (NCI-H1651; first compound 0.001 µM) was 1.05 and the relative viability (NCI-H1651; first compound 0.003162 µM) was 1.56. For the same compound, the relative viability (NCI-H1651; first compound 0.01 µM) was 1.43, the relative viability (NCI-H1651; first compound 0.03162 µM) was 0.782 and the relative viability (NCI-H1651; first compound 0.1 µM) was 1.21.

— the supplement of paper PMC10307832
